Data published in patent US20250302972A1, “FORMULATION” (ENA Respiratory Pty Ltd, priority 2021, published 2025).
Several values for one entry are separate records, joined by “and”; a condition that tells them apart may be missing. Equal entries are not always repeated.

How the values were obtained:
[1] = molecular target: T1, human TLR2 (hTLR2) (Homo sapiens, UniProt O60603); assay: Activation of human TLR2 II: HEK-BLUE-hTLR2 SEAP reporter assay; format: cell-based
T1 construct: host or cells: HEK293 (HEK-BLUE-hTLR2)
T1 sequence (O60603 21-784): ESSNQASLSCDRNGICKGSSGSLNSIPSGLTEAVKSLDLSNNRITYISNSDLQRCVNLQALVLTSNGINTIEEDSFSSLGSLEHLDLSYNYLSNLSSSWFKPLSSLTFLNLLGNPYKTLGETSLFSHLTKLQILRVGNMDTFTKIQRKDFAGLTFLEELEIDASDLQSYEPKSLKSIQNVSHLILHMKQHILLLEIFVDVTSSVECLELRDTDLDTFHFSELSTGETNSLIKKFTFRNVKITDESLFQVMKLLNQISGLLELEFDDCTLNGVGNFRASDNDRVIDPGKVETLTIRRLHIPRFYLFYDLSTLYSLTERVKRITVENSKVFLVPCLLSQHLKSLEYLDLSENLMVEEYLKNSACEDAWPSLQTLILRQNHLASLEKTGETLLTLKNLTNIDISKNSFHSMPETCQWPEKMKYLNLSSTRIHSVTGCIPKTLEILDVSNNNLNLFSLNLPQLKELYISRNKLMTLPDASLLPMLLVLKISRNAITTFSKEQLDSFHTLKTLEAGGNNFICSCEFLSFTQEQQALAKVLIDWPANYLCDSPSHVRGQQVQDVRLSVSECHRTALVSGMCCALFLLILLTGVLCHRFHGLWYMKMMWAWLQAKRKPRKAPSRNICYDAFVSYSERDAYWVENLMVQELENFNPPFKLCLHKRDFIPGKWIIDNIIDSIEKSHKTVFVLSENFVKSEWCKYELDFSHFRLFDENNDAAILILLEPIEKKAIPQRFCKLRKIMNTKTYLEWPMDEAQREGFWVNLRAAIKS
T1 sequence (Q9Y2C9 32-796 partner): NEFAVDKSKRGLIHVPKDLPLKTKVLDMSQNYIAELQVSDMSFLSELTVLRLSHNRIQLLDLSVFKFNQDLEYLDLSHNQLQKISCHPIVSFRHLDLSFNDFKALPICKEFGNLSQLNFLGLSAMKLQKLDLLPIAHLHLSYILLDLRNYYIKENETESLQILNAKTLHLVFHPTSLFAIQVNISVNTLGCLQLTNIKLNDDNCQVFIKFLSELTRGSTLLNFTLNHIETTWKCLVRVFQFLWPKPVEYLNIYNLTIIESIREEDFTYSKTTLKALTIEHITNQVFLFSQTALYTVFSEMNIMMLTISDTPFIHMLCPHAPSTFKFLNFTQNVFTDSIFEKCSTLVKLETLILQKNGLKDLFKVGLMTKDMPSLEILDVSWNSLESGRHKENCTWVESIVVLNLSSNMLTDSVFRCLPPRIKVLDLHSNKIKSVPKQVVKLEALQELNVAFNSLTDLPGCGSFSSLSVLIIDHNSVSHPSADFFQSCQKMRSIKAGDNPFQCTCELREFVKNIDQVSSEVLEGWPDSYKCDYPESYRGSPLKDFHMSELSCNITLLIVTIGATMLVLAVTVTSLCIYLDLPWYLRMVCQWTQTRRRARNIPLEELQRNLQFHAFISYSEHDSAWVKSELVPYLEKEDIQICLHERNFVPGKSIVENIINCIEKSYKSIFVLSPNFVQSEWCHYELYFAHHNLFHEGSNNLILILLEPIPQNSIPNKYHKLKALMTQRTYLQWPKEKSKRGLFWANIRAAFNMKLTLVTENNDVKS

[2] = molecular target: T2, human TLR2 (Homo sapiens, UniProt O60603); assay: HEK-Blue hTLR2 Dose Response (NF-κB SEAP reporter); format: cell-based; conditions: for stimulatory (agonist) activity for hTLR2: HEK-Blue hTLR2
T2 construct: expressed in transfected cells; host or cells: HEK-Blue hTLR2
T2 sequence (O60603 21-784): as the sequence (O60603 21-784) above
T2 sequence (Q9Y2C9 32-796 partner): as the sequence (Q9Y2C9 32-796 partner) above
Protocol: (§1) Toll-Like Receptor (TLR) stimulation is tested by assessing NF-κB activation in the TLR expressing cell lines. HEK-Blue h/mTLR2 cells have been stably transfected with human or mouse TLR2 and CD14. The activity of the test articles are tested on human and mouse TLR2, as potential agonists. The test articles are evaluated at seven concentrations and compared to control ligands (see list below). These steps are performed in triplicate.
[…] Starting from the 5 μg/mL working stock, a series of six 1:4 serial dilutions were made by mixing 100 μL of the previous highest dilution with 300 μL sterile PBS.
(§2) The secreted embryonic alkaline phosphatase (SEAP) reporter is under the control of a promoter inducible by the transcription factor NF-κB. This reporter gene allows the monitoring of signaling through the TLR, based on the activation of NF-κB. In a 96-well plate (200 μL total volume) containing the appropriate cells (50,000-75,000 cells/well), 20 μL of the test article or the positive control ligand (HKLC) is added to the wells. The media added to the wells is designed for the detection of NF-κB induced SEAP expression. After a 16-24-hour incubation the optical density (OD) is read at 650 nm on a Molecular Devices SpectraMax 340PC absorbance detector.

[3] = molecular target: T3, mouse TLR2 (Mus musculus, UniProt Q9QUN7); assay: HEK-Blue mTLR2 Dose Response (NF-κB SEAP reporter); format: cell-based
T3 construct: expressed in transfected cells; host or cells: HEK-Blue mTLR2
T3 sequence (Q9QUN7 25-784): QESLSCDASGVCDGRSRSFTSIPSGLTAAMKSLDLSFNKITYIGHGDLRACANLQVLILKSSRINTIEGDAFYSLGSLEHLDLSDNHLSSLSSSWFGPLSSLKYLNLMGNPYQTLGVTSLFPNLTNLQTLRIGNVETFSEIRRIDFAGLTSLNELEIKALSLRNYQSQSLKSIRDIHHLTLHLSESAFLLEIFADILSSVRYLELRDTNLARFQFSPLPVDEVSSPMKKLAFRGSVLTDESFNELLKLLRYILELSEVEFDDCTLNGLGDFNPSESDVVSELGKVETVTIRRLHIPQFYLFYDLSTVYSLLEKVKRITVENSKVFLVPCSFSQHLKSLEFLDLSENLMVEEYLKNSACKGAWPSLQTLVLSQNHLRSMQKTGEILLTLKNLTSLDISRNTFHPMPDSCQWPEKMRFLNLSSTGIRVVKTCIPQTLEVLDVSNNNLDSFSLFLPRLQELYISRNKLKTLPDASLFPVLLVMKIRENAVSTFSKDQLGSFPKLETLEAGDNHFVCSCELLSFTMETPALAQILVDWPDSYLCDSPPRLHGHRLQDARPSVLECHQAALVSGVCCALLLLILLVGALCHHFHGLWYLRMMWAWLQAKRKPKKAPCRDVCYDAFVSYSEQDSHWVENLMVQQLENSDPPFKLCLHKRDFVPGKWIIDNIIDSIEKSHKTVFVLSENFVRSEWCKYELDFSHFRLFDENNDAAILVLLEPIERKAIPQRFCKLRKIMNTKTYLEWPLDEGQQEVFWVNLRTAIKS
T3 sequence (Q9Y2C9 32-796 partner): as the sequence (Q9Y2C9 32-796 partner) above
Protocol: as §1
A 5 μg/mL working stock was then prepared for each compound from the 20 μg/mL dilution in sterile PBS. Starting from the 5 μg/mL working stock, a series of six 1:4 serial dilutions were made by mixing 100 μL of the previous highest dilution with 300 μL sterile PBS.
as §2

[4] = test system: HEK-Blue Null1 cells; assay: HEK-Blue Null1 control cell line (control for human TLR2); format: cell-based; conditions: TLR2-free control cells
Protocol: as §2

[5] = test system: HEK-Blue Null2 cells; assay: HEK-Blue Null2 control cell line (control for mouse TLR2); format: cell-based; conditions: TLR2-free control cells
Protocol: as §2

[6] = Stability IV: formulation pH at each time point; format: physicochemical
Protocol: Each compound was formulated in 0.9% w/w saline with addition of 0.1% w/w EDTA at about pH 5. The formulations were stored in the dark under accelerated conditions (40° C./75% RH) and reference formulations were stored at −80° C. At days 0, 9 and 28, samples were analysed by UHPLC and pH was measured.
The remaining ˜1 mL of solution in the clear glass HPLC vials was stored at 40° C./75% RH and was used to measure pH at each time point.
The formulation pH data recorded at each time point are compiled in Table 19. There was a general trend for the pH to increase with time but the effect was not pronounced.

Row | Structure (SMILES) | optical density (650 nm), Average ([2]; 0.12 pg/mL) | optical density (650 nm), screenings 1-3 ([2]; 0.12 pg/mL) | optical density (650 nm), Average ([2]; 0.49 pg/mL) | optical density (650 nm), screenings 1-3 ([2]; 0.49 pg/mL) | optical density (650 nm), Average ([2]; 1.95 pg/mL) | optical density (650 nm), screenings 1-3 ([2]; 1.95 pg/mL) | optical density (650 nm), Average ([2]; 7.81 pg/mL) | optical density (650 nm), screenings 1-3 ([2]; 7.81 pg/mL) | optical density (650 nm), Average ([2]; 31.25 pg/mL) | optical density (650 nm), screenings 1-3 ([2]; 31.25 pg/mL) | optical density (650 nm), Average ([2]; 125 pg/mL) | optical density (650 nm), screenings 1-3 ([2]; 125 pg/mL) | optical density (650 nm), Average ([2]; 500 pg/mL) | optical density (650 nm), screenings 1-3 ([2]; 500 pg/mL) | stimulatory (agonist) activity for hTLR2 [2] | stimulatory (agonist) activity for mTLR2 [3] | Fold Induction (ratio of average induced value to average non-induced value) ([2]; 0.12 pg/mL) | Fold Induction ([2]; 500 pg/mL) | stimulatory response in HEK-Blue Null1 (human) cells [4] | stimulatory response in HEK-Blue Null2 (mouse) cells [5] | other results
1 | CCCCCCCCCCCCCCC(C)C(=O)OC[C@H](CSC[C@H](N)C(=O)N[C@@H](CO)C(=O)NCCOCCOCCOCCOCCOCCOCCOCCOCCOCCOCCOCCOCCOCCOCCOCCOCCOCCOCCOCCOCCOCCOCCOCCOCCOCCOCCOCCOCCC(=O)NCC(N)=O)OC(=O)C(C)CCCCCCCCCCCCCC (some centres unmarked) [B4] | 0.740 | 0.653 and 0.759 and 0.809 | 1.479 | 1.409 and 1.507 and 1.521 | 1.823 | 1.795 and 1.757 and 1.916 | 2.260 | 2.288 and 2.168 and 2.323 | 2.481 | 2.440 and 2.485 and 2.518 | 2.521 | 2.569 and 2.508 and 2.487 | 2.611 | 2.717 and 2.590 and 2.526 | possesses stimulatory activity | possesses stimulatory activity |  |  | not observed | not observed | optical density (650 nm), screenings 1-3 ([1]; 0.1 ng/mL): 0.182 and 0.206 and 0.197; optical density (650 nm), screenings 1-3 ([1]; 0.31 ng/mL): 0.126 and 0.115; optical density (650 nm), screenings 1-3 ([1]; 0.5 ng/mL): 0.719 and 0.594 and 0.617; optical density (650 nm), screenings 1-3 ([1]; 2.0 ng/mL): 1.660 and 1.529 and 1.498; optical density (650 nm), screenings 1-3 ([1]; 7.8 ng/mL): 2.214 and 2.163; optical density (650 nm), screenings 1-3 ([1]; 31.3 ng/mL): 2.438 and 2.327 and 2.350; optical density (650 nm), screenings 1-3 ([1]; 125 ng/mL): 2.451 and 2.411 and 2.467; formulation pH ([6]; 0-days): 5.6; formulation pH ([6]; 9-days, 40° C./75% RH): 5.7; formulation pH ([6]; 28-days, 40° C./75% RH): 5.7
2 | CCCCCCCCCCCCCC[C@@H](C)C(=O)OC[C@H](CSC[C@H](N)C(=O)N[C@@H](CO)C(=O)NCCOCCOCCOCCOCCOCCOCCOCCOCCOCCOCCOCCOCCOCCOCCOCCOCCOCCOCCOCCOCCOCCOCCOCCOCCOCCOCCOCCOCCC(=O)NCC(N)=O)OC(=O)[C@H](C)CCCCCCCCCCCCCC [B6] | 0.679 | 0.591 and 0.742 and 0.704 | 1.156 | 1.230 and 1.151 and 1.088 | 1.785 | 1.755 and 1.776 and 1.824 | 2.186 | 2.154 and 2.186 and 2.219 | 2.529 | 2.512 and 2.527 and 2.547 | 2.470 | 2.522 and 2.466 and 2.422 | 2.637 | 2.649 and 2.606 and 2.656 | possesses stimulatory activity | possesses stimulatory activity | 9.4 | 36.6 | not observed | not observed | Fold Induction ([2]; 0.49 pg/mL): 16.1; Fold Induction ([2]; 1.95 pg/mL): 24.8; Fold Induction ([2]; 7.81 pg/mL): 30.4; Fold Induction ([2]; 31.25 pg/mL): 35.1; Fold Induction ([2]; 125 pg/mL): 34.3; EC50 ([2]; agonism of hTLR2, HEK-Blue hTLR2): 0.34 nM
3 | CCCCCCCCCCCCCC[C@H](C)C(=O)OC[C@H](CSC[C@H](N)C(=O)N[C@@H](CO)C(=O)NCCOCCOCCOCCOCCOCCOCCOCCOCCOCCOCCOCCOCCOCCOCCOCCOCCOCCOCCOCCOCCOCCOCCOCCOCCOCCOCCOCCOCCC(=O)NCC(N)=O)OC(=O)[C@@H](C)CCCCCCCCCCCCCC [B8] | 1.928 | 1.936 and 1.856 and 1.992 | 2.243 | 2.345 and 2.229 and 2.154 | 2.465 | 2.469 and 2.420 and 2.507 | 2.565 | 2.326 and 2.636 and 2.734 | 2.652 | 2.563 and 2.643 and 2.751 | 2.735 | 2.746 and 2.716 and 2.743 | 2.668 | 2.648 and 2.664 and 2.693 | possesses stimulatory activity | possesses stimulatory activity | 25.4 | 35.1 | not observed | not observed | Fold Induction ([2]; 0.49 pg/mL): 29.5; Fold Induction ([2]; 1.95 pg/mL): 32.4; Fold Induction ([2]; 7.81 pg/mL): 33.8; Fold Induction ([2]; 31.25 pg/mL): 34.9; Fold Induction ([2]; 125 pg/mL): 36

More lines, main results first:

Row | optical density (650 nm), Average ([2]; 0.12 pg/mL) | optical density (650 nm), screenings 1-3 ([2]; 0.12 pg/mL) | optical density (650 nm), Average ([2]; 0.49 pg/mL) | optical density (650 nm), screenings 1-3 ([2]; 0.49 pg/mL) | optical density (650 nm), Average ([2]; 1.95 pg/mL) | optical density (650 nm), screenings 1-3 ([2]; 1.95 pg/mL) | optical density (650 nm), Average ([2]; 7.81 pg/mL) | optical density (650 nm), screenings 1-3 ([2]; 7.81 pg/mL) | optical density (650 nm), Average ([2]; 31.25 pg/mL) | optical density (650 nm), screenings 1-3 ([2]; 31.25 pg/mL) | optical density (650 nm), Average ([2]; 125 pg/mL) | optical density (650 nm), screenings 1-3 ([2]; 125 pg/mL) | optical density (650 nm), Average ([2]; 500 pg/mL) | optical density (650 nm), screenings 1-3 ([2]; 500 pg/mL) | stimulatory (agonist) activity for hTLR2 [2] | stimulatory (agonist) activity for mTLR2 [3] | Fold Induction (ratio of average induced value to average non-induced value) ([2]; 0.12 pg/mL) | Fold Induction ([2]; 500 pg/mL) | Structure (SMILES) | stimulatory response in HEK-Blue Null1 (human) cells [4] | stimulatory response in HEK-Blue Null2 (mouse) cells [5] | other results
4 | 0.823 | 0.826 and 0.869 and 0.774 | 1.342 | 1.256 and 1.364 and 1.406 | 2.018 | 1.994 and 2.061 and 2.000 | 2.562 | 2.569 and 2.545 and 2.571 | 2.744 | 2.820 and 2.720 and 2.691 | 2.814 | 2.928 and 2.800 and 2.713 | 2.759 | 2.722 and 2.765 and 2.791 | possesses stimulatory activity | possesses stimulatory activity |  | 33.9 | CCCCCCCCCCCCCC[C@@H](C)C(=O)OCC[C@H](CSC[C@H](N)C(=O)N[C@@H](CO)C(=O)NCCOCCOCCOCCOCCOCCOCCOCCOCCOCCOCCOCCOCCOCCOCCOCCOCCOCCOCCOCCOCCOCCOCCOCCOCCOCCOCCOCCOCCC(=O)NCC(N)=O)OC(=O)[C@H](C)CCCCCCCCCCCCCC [B14] | not observed | not observed | 
5 | 0.666 | 0.688 and 0.591 and 0.718 | 1.099 | 1.080 and 1.097 and 1.121 | 1.521 | 1.478 and 1.513 and 1.573 | 1.978 | 1.903 and 1.897 and 2.133 | 2.252 | 2.093 and 2.297 and 2.367 | 2.540 | 2.531 and 2.544 and 2.545 | 2.475 | 2.466 and 2.488 and 2.472 | possesses stimulatory activity | possesses stimulatory activity |  |  | CCCCCCCCCCCCCC[C@H](C)C(=O)OCC[C@H](CSC[C@H](N)C(=O)N[C@@H](CO)C(=O)NCCOCCOCCOCCOCCOCCOCCOCCOCCOCCOCCOCCOCCOCCOCCOCCOCCOCCOCCOCCOCCOCCOCCOCCOCCOCCOCCOCCOCCC(=O)NCC(N)=O)OC(=O)[C@@H](C)CCCCCCCCCCCCCC [B16] | not observed | not observed | 
